{"source": "ChEMBL document CHEMBL1130294", "about": "“Subsite requirements for peptide aldehyde inhibitors of human calpain I” (Bioorg Med Chem Lett, 1997)", "note": "Non-standard residues stand in square brackets, D forms with d. Residues, ends and D or L forms follow the SMILES beside them. *: point of attachment. tBuAla = CC(C)(C)C[C@H](N)C(=O)O; Cbz = O=C(OCc1ccccc1)*"}
{"target": "T1, Calpain-1 catalytic subunit (Homo sapiens, UniProt P07384)", "T1 sequence (P07384 whole entry)": "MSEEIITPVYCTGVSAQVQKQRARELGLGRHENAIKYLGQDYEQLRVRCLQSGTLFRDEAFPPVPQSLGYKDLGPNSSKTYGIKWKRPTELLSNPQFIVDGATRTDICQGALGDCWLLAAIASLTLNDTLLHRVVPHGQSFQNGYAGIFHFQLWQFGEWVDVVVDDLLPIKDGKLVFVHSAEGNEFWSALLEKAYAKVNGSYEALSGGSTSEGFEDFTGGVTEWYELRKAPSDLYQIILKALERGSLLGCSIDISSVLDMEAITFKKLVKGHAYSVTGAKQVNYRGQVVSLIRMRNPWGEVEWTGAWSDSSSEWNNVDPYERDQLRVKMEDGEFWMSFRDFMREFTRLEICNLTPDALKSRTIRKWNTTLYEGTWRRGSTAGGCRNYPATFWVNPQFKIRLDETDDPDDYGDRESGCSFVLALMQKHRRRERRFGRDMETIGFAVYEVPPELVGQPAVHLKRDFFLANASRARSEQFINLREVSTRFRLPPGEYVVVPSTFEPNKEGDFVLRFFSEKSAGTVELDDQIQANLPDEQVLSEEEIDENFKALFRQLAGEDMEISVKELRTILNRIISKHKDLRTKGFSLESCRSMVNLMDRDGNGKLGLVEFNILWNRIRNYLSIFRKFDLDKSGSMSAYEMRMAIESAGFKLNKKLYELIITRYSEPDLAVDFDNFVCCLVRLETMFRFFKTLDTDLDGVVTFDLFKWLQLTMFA", "experiment": "Inhibitory activity evaluated against recombinant human calpain 1", "units": {"IC50": "nM"}}
{"smiles": "CC(C)C[C@@H](C=O)NC(=O)[C@@H](NC(=O)OCc1ccccc1)[C@H](C)O", "IC50": 190}
{"smiles": "CC(C)C[C@H](NC(=O)OCc1ccccc1)C(=O)N[C@H](C=O)Cc1ccccc1", "note": "(Cbz-Leu-Phe-aldehyde)", "IC50": 10}
{"smiles": "CC(C)C[C@@H](C=O)NC(=O)[C@H](CC(C)(C)C)NC(=O)OCc1ccccc1", "note": "(Cbz-[tBuAla]-Leu-aldehyde)", "IC50": 140}
{"smiles": "CC(C)C[C@@H](C=O)NC(=O)CCNC(=O)OCc1ccccc1", "IC50": "> 10000"}
